Values belong to the molecule of their own block, whether it stands above or below them.
Columns and labels:
MCF7 [1] = assay: Antiproliferative activity against human MCF7 cells assessed as cell viability at 10 uM after 24 hrs by MTT assay; format: functional; details: MCF7, 24 h, read-out: Activity
MCF7 [2] = assay: Antiproliferative activity against human MCF7 cells assessed as cell viability at 1 uM after 24 hrs by MTT assay; format: functional; details: MCF7, 24 h, read-out: Activity
[3] = Antiproliferative activity against human KB 3.1 cells assessed as cell viability at 10 uM after 24 hrs by MTT assay; format: functional; details: KB 3-1, 24 h, read-out: Activity
[4] = Antiproliferative activity against human KB 3.1 cells assessed as cell viability at 1 uM after 24 hrs by MTT assay; format: functional; details: KB 3-1, 24 h, read-out: Activity
[5] = Antiproliferative activity against human KB 3.1 cells after 24 hrs by MTT assay; format: functional, cell-based; details: KB 3-1, 24 h
[6] = Antiproliferative activity against human KB 3.1 cells after 72 hrs by MTT assay; format: functional, cell-based; details: KB 3-1, 72 h
[7] = Ratio of IC50 for human KB 3.1 cells after 24 hrs to IC50 for human KB 3.1 cells after 72 hrs by MTT assay; format: functional
MCF7 [8] = assay: Antiproliferative activity against human MCF7 cells after 24 hrs by MTT assay; format: functional, cell-based; details: MCF7, 24 h
MCF7 [9] = assay: Antiproliferative activity against human MCF7 cells after 72 hrs by MTT assay; format: functional, cell-based; details: MCF7, 72 h
MCF7 [10] = assay: Ratio of IC50 for human […] cells after 24 hrs to IC50 for human MCF7 cells after 72 hrs by MTT assay; format: functional

Structure (SMILES): CC(=O)Oc1cc(OC(C)=O)c2c(=O)c3ccc(/C=N/Nc4ccccn4)cc3oc2c1
- viability at 10 µM (MCF7 [1]): 100%
- viability at 1 µM (MCF7 [2]): 100%
- viability at 10 µM [3]: 87%
- viability at 1 µM [4]: 100%

Structure (SMILES): CC(=O)Oc1cc(OC(C)=O)c2c(=O)c3cccc(/C=N\Nc4ccccn4)c3oc2c1
- viability at 10 µM (MCF7 [1]): 79%
- viability at 1 µM (MCF7 [2]): 80%
- viability at 10 µM [3]: 90%
- viability at 1 µM [4]: 95%

- IC50 (MCF7 [8]): 9.3 µM
- IC50 (MCF7 [9]): 7 µM
Structure (SMILES): CC(=O)Oc1cc(OC(C)=O)c2c(=O)c3cc(/C=N/NC4=NCCN4)ccc3oc2c1
- viability at 10 µM (MCF7 [1]): 14%
- viability at 1 µM (MCF7 [2]): 64%
- viability at 10 µM [3]: 14%
- viability at 1 µM [4]: 100%
- IC50 [5]: 11.3 µM
- IC50 [6]: 4.7 µM
- Ratio IC50 [7]: 2.4
- Ratio IC50 (MCF7 [10]): 1.3

Structure (SMILES): CC(=O)Oc1cc(OC(C)=O)c2c(=O)c3ccc(/C=N/Nc4ccccc4)cc3oc2c1
- viability at 10 µM (MCF7 [1]): 100%
- viability at 1 µM (MCF7 [2]): 100%
- viability at 10 µM [3]: 100%
- viability at 1 µM [4]: 100%

Structure (SMILES): O=c1c2ccc(/C=N/Nc3ccccn3)cc2oc2cc(O)cc(O)c12
- viability at 10 µM (MCF7 [1]): 3%
- viability at 1 µM (MCF7 [2]): 100%
- viability at 10 µM [3]: 2%
- viability at 1 µM [4]: 77%

Structure (SMILES): O=c1c2ccc(/C=N/NC3=NCCN3)cc2oc2cc(O)cc(O)c12
- viability at 10 µM (MCF7 [1]): 70%
- viability at 1 µM (MCF7 [2]): 73%
- viability at 10 µM [3]: 80%
- viability at 1 µM [4]: 93%

Structure (SMILES): O=c1c2cccc(/C=N\NC3=NCCN3)c2oc2cc(O)cc(O)c12
- viability at 10 µM (MCF7 [1]): 82%
- viability at 1 µM (MCF7 [2]): 97%
- viability at 10 µM [3]: 75%
- viability at 1 µM [4]: 90%

Structure (SMILES): O=c1c2cccc(/C=N\Nc3ccccn3)c2oc2cc(O)cc(O)c12
- viability at 10 µM (MCF7 [1]): 12%
- viability at 1 µM (MCF7 [2]): 86%
- viability at 10 µM [3]: 3%
- viability at 1 µM [4]: 96%

Structure (SMILES): O=c1c2cc(/C=N/NC3=NCCN3)ccc2oc2cc(O)cc(O)c12
- viability at 10 µM (MCF7 [1]): 64%
- viability at 1 µM (MCF7 [2]): 90%
- viability at 10 µM [3]: 92%
- viability at 1 µM [4]: 99%

Structure (SMILES): CC(=O)Oc1cc(OC(C)=O)c2c(=O)c3cc(/C=N/Nc4ccccc4)ccc3oc2c1
- viability at 10 µM (MCF7 [1]): 100%
- viability at 1 µM (MCF7 [2]): 100%
- viability at 10 µM [3]: 100%
- viability at 1 µM [4]: 100%

Structure (SMILES): O=c1c2cc(/C=N/Nc3ccccc3)ccc2oc2cc(O)cc(O)c12
- viability at 10 µM (MCF7 [1]): 72%
- viability at 1 µM (MCF7 [2]): 100%
- viability at 10 µM [3]: 82%
- viability at 1 µM [4]: 100%

Structure (SMILES): O=c1c2ccc(/C=N/Nc3ccccc3)cc2oc2cc(O)cc(O)c12
- viability at 10 µM (MCF7 [1]): 100%
- viability at 1 µM (MCF7 [2]): 100%
- viability at 10 µM [3]: 61%
- viability at 1 µM [4]: 100%

Structure (SMILES): O=c1c2cccc(/C=N\Nc3ccccc3)c2oc2cc(O)cc(O)c12
- viability at 10 µM (MCF7 [1]): 100%
- viability at 1 µM (MCF7 [2]): 100%
- viability at 10 µM [3]: 96%
- viability at 1 µM [4]: 100%

- IC50 (MCF7 [8]): 1.9 µM
- IC50 (MCF7 [9]): 2.4 µM
Structure (SMILES): CC(=O)Oc1cc(OC(C)=O)c2c(=O)c3ccc(/C=N/NC4=NCCN4)cc3oc2c1
- viability at 10 µM (MCF7 [1]): 13%
- viability at 1 µM (MCF7 [2]): 35%
- viability at 10 µM [3]: 13%
- viability at 1 µM [4]: 85%
- IC50 [5]: 1.6 µM
- IC50 [6]: 1.8 µM
- Ratio IC50 [7]: 0.9
- Ratio IC50 (MCF7 [10]): 0.8

Structure (SMILES): O=c1c2cc(/C=N/Nc3ccccn3)ccc2oc2cc(O)cc(O)c12
- viability at 10 µM (MCF7 [1]): 41%
- viability at 1 µM (MCF7 [2]): 58%
- viability at 10 µM [3]: 90%
- viability at 1 µM [4]: 95%

Structure (SMILES): CC(=O)Oc1cc(OC(C)=O)c2c(=O)c3cccc(/C=N\Nc4ccccc4)c3oc2c1
- viability at 10 µM (MCF7 [1]): 100%
- viability at 1 µM (MCF7 [2]): 100%
- viability at 10 µM [3]: 82%
- viability at 1 µM [4]: 100%

Structure (SMILES): CC(=O)Oc1cc(OC(C)=O)c2c(=O)c3cc(/C=N/Nc4ccccn4)ccc3oc2c1
- viability at 10 µM (MCF7 [1]): 70%
- viability at 1 µM (MCF7 [2]): 85%
- viability at 10 µM [3]: 60%
- viability at 1 µM [4]: 98%

- IC50 (MCF7 [8]): 5.1 µM
- IC50 (MCF7 [9]): 5.6 µM
Structure (SMILES): CC(=O)Oc1cc(OC(C)=O)c2c(=O)c3cccc(/C=N\NC4=NCCN4)c3oc2c1
- viability at 10 µM (MCF7 [1]): 48%
- viability at 1 µM (MCF7 [2]): 80%
- viability at 10 µM [3]: 66%
- viability at 1 µM [4]: 95%
- IC50 [5]: 6.8 µM
- IC50 [6]: 6.5 µM
- Ratio IC50 [7]: 1.05
- Ratio IC50 (MCF7 [10]): 0.9

Structure (SMILES): COc1cccc2c1C(=O)c1c(O)c3c(c(O)c1C2=O)C[C@@](O)(C(=O)CO)C[C@@H]3O[C@H]1C[C@H](N)[C@H](O)[C@H](C)O1 [DOXORUBICIN]
- IC50 [5]: 0.01 µM
- IC50 [6]: 0.0004 µM
